Experimental data taken from patent US10208074B2, “Pyrazole compounds and method for making and using the compounds” (Rigel Pharmaceuticals, Inc., priority 2015, dated 2019).
Counter-ions that a name gives are not always drawn. Like-named read-outs stand apart in the source and are kept apart here.

Assays:
[1] = system: IL-23 (p19/p40); test: IL23-p19 ELISA, Dendritic, LPS (compound screening using DC cells); assay type: cell-based, Human; settings: PBMC-derived DC cells, IFNγ primed, LPS 1 μg/ml, 18 hours, 10 pt, read-out: IL23-p19 ELISA, Dendritic, LPS, 10 pt, EC50
Method in brief: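 IL-23 in supernatants quantified by sandwich ELISA (anti-p19 capture, biotinylated anti-p40 detection, chemiluminescent readout) after 18 h LPS (1 μg/ml) stimulation. Cells were monocyte-derived DCs (GM-CSF/IL-4, 7 d), IFNγ-primed 24 h and given compound 1 h before LPS; viability by CellTiter Glo.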

[2] = system: IL-23p19; test: LPS induced IL23p19 in THP-1 cells (with IFNγ primed) assay; assay type: cell-based, Human; settings: THP-1 cells, IFNγ primed, LPS 1 ug/mL, 18 hours, 10 pt, read-out: IL23-p19 ELISA, THP1-IFNy, LPS, 10 pt EC50
Method in brief: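 Readout is secreted IL-23p19, quantified by chemiluminescent sandwich ELISA after 18 h LPS (1 ug/mL) stimulation of THP-1 cells that had been IFNγ-primed (50 ng/mL, ~18 h) and given compound 1 h beforehand at 37 °C. EC50 derived by curve fit; cytotoxicity tracked with Cell Titer Glo.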

| EC50 ([1]; Homo sapiens, 18 h) | EC50 ([2]; Homo sapiens, THP-1, 18 h) | Structure (SMILES) | also measured |
| --- | --- | --- | --- |
| 263 nM | 80.2 nM | CCO[C@H]1CC[C@H](n2cc(NC(=O)c3csc(-c4cn[nH]c4)n3)c(-c3ncc(F)cc3F)n2)CC1 [II-180, N-(3-(3,5-difluoropyridin-2-yl)-1-((1r,4r)-4-ethoxycyclohexyl)-1H-pyrazol-4-yl)-2-(1H-pyrazol-4-yl)thiazole-4-carboxamide] | – |
| 81 nM | 48.7 nM | [2H]C([2H])([2H])C([2H])([2H])O[C@H]1C[C@@H](n2cc(NC(=O)c3csc(-c4cn[nH]c4)n3)c(-c3ccccn3)n2)C1 [II-127, N-(1-((1s,3s)-3-(ethoxy-d5)cyclobutyl)-3-(pyridin-2-yl)-1H-pyrazol-4-yl)-2-(1H-pyrazol-4-yl)thiazole-4-carboxamide] | – |
| 9360 nM | – | O=C(Nc1cn(C(=O)N2CCOCC2)nc1-c1ccccn1)c1csc(-c2cn[nH]c2)n1 [II-131, N-(1-(morpholine-4-carbonyl)-3-(pyridin-2-yl)-1H-pyrazol-4-yl)-2-(1H-pyrazol-4-yl)thiazole-4-carboxamide formate] | EC50 ([2]; formate): 360 nM |
| 1130 nM | 589 nM | CCO[C@H]1C[C@@H](n2cc(NC(=O)c3csc(-c4cn[nH]c4)n3)c(-c3ncccc3C(F)(F)F)n2)C1 [II-89, N-(1-((1,3-cis)-3-ethoxycyclobutyl)-3-(3-(trifluoromethyl)pyridin-2-yl)-1H-pyrazol-4-yl)-2-(1H-pyrazol-4-yl)thiazole-4-carboxamide] | – |
| 51.7 nM | 251 nM | O=C(Nc1cn([C@H]2C[C@H](OCC(F)(F)F)C2)nc1-c1ccccn1)c1csc(-c2cn[nH]c2)n1 [II-141, 2-(1H-pyrazol-4-yl)-N-(3-(pyridin-2-yl)-1-((trans)-3-(2,2,2-trifluoroethoxy)cyclobutyl)-1H-pyrazol-4-yl)thiazole-4-carboxamide] | – |
| 47.5 nM | 52.4 nM | CC(C)O[C@H]1C[C@@H](n2cc(NC(=O)c3csc(-c4cn[nH]c4)n3)c(-c3ccccn3)n2)C1 [II-76, N-(1-((1,3-cis)-3-isopropoxycyclobutyl)-3-(pyridin-2-yl)-1H-pyrazol-4-yl)-2-(1H-pyrazol-4-yl)thiazole-4-carboxamide] | – |
| 225 nM | 102 nM | O=C(Nc1cn(C2CC(F)(F)C2)nc1-c1ccccn1)c1csc(-c2cn[nH]c2)n1 [II-134, N-(1-(3,3-difluorocyclobutyl)-3-(pyridin-2-yl)-1H-pyrazol-4-yl)-2-(1H-pyrazol-4-yl)thiazole-4-carboxamide] | – |
| 989 nM | 420 nM | CCO[C@H]1C[C@@H](n2cc(NC(=O)c3csc(-c4c[nH]nc4C)n3)c(-c3cccc(C(F)(F)F)n3)n2)C1 [II-99, N-(1-((1,3-cis)-3-ethoxycyclobutyl)-3-(6-(trifluoromethyl)pyridin-2-yl)-1H-pyrazol-4-yl)-2-(3-methyl-1H-pyrazol-4-yl)thiazole-4-carboxamide] | – |

The next lines start with the compound.

| Structure (SMILES) | EC50 ([1]; Homo sapiens, 18 h) | EC50 ([2]; Homo sapiens, THP-1, 18 h) | also measured |
| --- | --- | --- | --- |
| CC(=O)N1CC(n2cc(NC(=O)c3ccc(-c4cn[nH]c4)o3)c(-c3ccccn3)n2)C1 [Compound I-83, N-{1-(1-Acetylazetidin-3-yl)-3-(pyridine-2-yl)-1H-pyrazol-4-yl}-5-(1H-pyrazol-4-yl)furan-2-carboxamide, free base] | 93.2 nM | 34.8 nM | – |
| CC(C)(C)OC(=O)N1CC(n2cc(NC(=O)c3ccc(-c4cn[nH]c4)o3)c(-c3ccccn3)n2)C1 [Compound I-74, tert-Butyl-3-[4-{5-(1H-pyrazole-4-yl)furan-2-carboxamido}-3-(pyridine-2-yl)-1H-pyrazol-1-yl]azetidine-1-carboxylate] | – | – | EC50 [1]: 131 nM; EC50 [2]: 151 nM |
| CCO[C@H]1C[C@@H](n2cc(NC(=O)c3ccc(-c4cn[nH]c4)o3)c(-c3cccc(C(F)(F)F)n3)n2)C1 [Compound I-116, N-(1-((1s,3s)-3-ethoxycyclobutyl)-3-(6-(trifluoromethyl)pyridin-2-yl)-1H-pyrazol-4-yl)-5-(1H-pyrazol-4-yl)furan-2-carboxamide] | 218 nM | 226 nM | – |
| CCO[C@@H]1CC[C@H](n2cc(NC(=O)c3ccc(-c4cn[nH]c4)o3)c(-c3ccccn3)n2)C1 [Compound I-133, N-(1-((1S,3R)-3-ethoxycyclopentyl)-3-(pyridin-2-yl)-1H-pyrazol-4-yl)-5-(1H-pyrazol-4-yl)furan-2-carboxamide] | – | – | EC50 [1]: 386 nM; EC50 [2]: 80.6 nM |
| O=C(Nc1cn(C2CC(OCc3ccccc3)C2)nc1-c1ccccn1)c1ccc(-c2cn[nH]c2)o1 (stereo not drawn) [Compound I-73, N-{1-(3-Benzyloxy)cyclobutyl)-3-(pyridine-2-yl)-1H-pyrazol-4-yl}-5-(1H-pyrazol-4-yl)furan-2-carboxamide, Trans isomer] | 410 nM | 697 nM | – |
| O=C(Nc1cn([C@H]2CC[C@@H](O)C2)nc1-c1ccccn1)c1ccc(-c2cn[nH]c2)o1 [Compound I-134, N-(1-((1S,3R)-3-hydroxycyclopentyl)-3-(pyridin-2-yl)-1H-pyrazol-4-yl)-5-(1H-pyrazol-4-yl)furan-2-carboxamide formate] | 91 nM | 29.6 nM | – |
| CCO[C@H]1C[C@@H](n2cc(NC(=O)c3csc(-c4cnn(COP(=O)(O)O)c4)n3)c(-c3ccccn3)n2)C1 [II-78, (4-(4-((1-((1,3-cis)-3-ethoxycyclobutyl)-3-(pyridin-2-yl)-1H-pyrazol-4-yl)carbamoyl)thiazol-2-yl)-1H-pyrazol-1-yl)methyl phosphate calcium salt] | – | – | EC50 ([1]; phosphate calcium salt): 79.9 nM; EC50 ([2]; phosphate calcium salt): 165 nM |
| O=C(Nc1cn(CCOCC(F)(F)F)nc1-c1ccccn1)c1csc(-c2cc[nH]n2)n1 [II-66, 2-(1H-pyrazol-3-yl)-N-(3-(pyridin-2-yl)-1-(2-(2,2,2-trifluoroethoxy)ethyl)-1H-pyrazol-4-yl)thiazole-4-carboxamide] | 244 nM | 106 nM | – |
| COCCOCCN(C(=O)c1ccc(-c2cnn(CCOCCOC)c2)o1)c1cn(CCOCCOC)nc1-c1ccccn1 [Compound I-50, N-(2-(2-methoxyethoxy)ethyl)-5-(1-(2-(2-methoxyethoxy)ethyl)-1H-pyrazol-4-yl)-N-(1-(2-(2-methoxyethoxy)ethyl)-3-(pyridin-2-yl)-1H-pyrazol-4-yl)furan-2-carboxamide formate] | 3510 nM | 14200 nM | – |
| CC(C)[C@H](NC(=O)OC(C)(C)C)C(=O)n1cc(-c2nc(C(=O)Nc3cn(C)nc3-c3ccccn3)cs2)cn1 [II-3, tert-butyl (S)-(3-methyl-1-(4-(4-((1-methyl-3-(pyridin-2-yl)-1H-pyrazol-4-yl)carbamoyl)thiazol-2-yl)-1H-pyrazol-1-yl)-1-oxobutan-2-yl)carbamate] | 371 nM | 198 nM | – |
| CCOCCn1cc(NC(=O)c2ccc(-c3c[nH]nc3C(F)(F)F)o2)c(-c2ccccn2)n1 [Compound I-41, N-(1-(2-ethoxyethyl)-3-(pyridin-2-yl)-1H-pyrazol-4-yl)-5-(3-(trifluoromethyl)-1H-pyrazol-4-yl)furan-2-carboxamide formate] | 3940 nM | 2570 nM | – |
| O=C(Nc1cn(C2CN(C(=O)NC3CC3)C2)nc1-c1ccccn1)c1ccc(-c2cn[nH]c2)o1 [Compound I-87, 3-[4-{5-(1H-Pyrazol-4-yl)furan-2-carboxamido}-3-(pyridine-2-yl)-1H-pyrazol-1-yl]-N-cyclopropylazetidine-1-carboxamide, formate salt] | 105 nM | 43.3 nM | – |
